Test results reported in patent US6908930B2, “4-substituted 7-AZA-indolin-2-ones and their use as protein kinase inhibitors” (Sugen, Inc., priority 1999, dated 2005).
Where a name gives a salt, the structure may show the parent alone.

Molecular target: T1, HER-2 (Homo sapiens, UniProt P04626)
T1 construct: expressed in mouse 3T3 (clone C7) cells; P00533 (Epidermal growth factor receptor)
Assay: Assay for modulation of HER-2 activity in whole cells (ELISA)
Format: cell-based
Conditions: EGFR/HER-2chimera/#T3-C7 cell lines, EGF stimulated; read-out: HER-2 kinase IC50
Description: Using the following reagents, supplies, and method, the ability of compounds of the invention to affect the activity of HER-2 in whole cells in an ELISA format can be assigned.
EGFR/HER-2chimera/#T3-C7 cell lines are used for this assay. Choose dishes having 80-90% confluence for the experiment. Collect cells by trypsinization and centrifuge at 1000 rpm at room temperature for 5 minutes.
Resuspend cells in starve medium and count with trypan blue. Only viability above 90% is acceptable. Seed cells in starve medium at a density of 2,500 cells per well, 90 μL per well, in a 96 well microtiter plate. Incubate seeded cells in 5% CO2 at 37° C. overnight. Start the assay two days after seeding.
Samples are diluted directly into a polypropylene plate containing starve-DMEM (non-sterile is okay). This dilution will be 1:10 or greater, depending on the samples being screened. The same amount of DMSO is put into the control wells. […] are then transferred to the cell plate at a 1:10 dilution (10 μL of sample and media into 90 μL of starve media). The final DMSO concentration will be 1% or lower.
Ten samples are put into wells 2-11 of row A of the NUNC 96 well polypropylene plate. These wells contain straight starve-DMEM. For a 1:10 dilution, one would put 10 μL of drug into 90 μL of media. The rest of the wells (including the controls) will have a DMSO/media mixture. The percentage of DMSO in this mixture is determined by the first dilution factor, in this case 1:10. The DMSO concentration is therefore 10%. An equal amount of drug and media from row A is put into row B, containing DMSO and media. The same amount is then taken out and put into row C. This is repeated for all rows. These are 1:2 dilutions. All wells are then transferred to the cell plate at a 1:10 dilution (10 μL of sample and media into 90 μL of starve-DMEM. The final DMSO concentration will be 1% or lower. […]
After a 2 hour incubation with the drug, add prepared EGF ligand to cells at 50 μL per well, for a final concentration of 50 nM. Positive control wells (8) receive the same amount of EGF. […] Incubate at 37° C. for 10 minutes.
Remove drug, EGF, and DMEM by dumping in sink. Wash cells once with PBS.
Transfer HNTG* to cells, 100 μL per well. Place on ice for 5 minutes. Meanwhile, remove blocking buffer from ELISA plate and wash as described above. With a pipette tip securely fitted to a micropipettor, scrape cells from plate and homogenize cell material by repeatedly aspirating and dispensing the HNTG* lysis buffer. Transfer lysate to a coated, blocked, washed ELISA plate. Alternatively, one may use a Costar transfer cartridge to transfer lysate to the ELISA plate. Incubate, shaking, at room temperature for one hour.
Remove lysate by dumping in sink, then wash as described earlier. Transfer freshly diluted anti-phosphotyrosine (anti-Ptyr) antibody (1:3000 in TEST) to ELISA plate, 100 μL per well. Incubate, shaking, at room temperature, for 30 minutes.
Remove anti-Ptyr antibody by dumping in sink, then wash as described earlier. Transfer freshly diluted BIOSOURCE antibody to ELISA plate, (1:8000 in TEST), 100 μL per well. Incubate, shaking, at room temperature for 30 minutes.
Remove BIOSOURCE antibody by dumping in sink, then wash as described earlier. Transfer freshly prepared ABTS/H2O2 solution to ELISA plate, […]. Incubate 5-10 minutes while shaking. Remove any bubbles and if necessary, stop reaction with the addition of 100 μL of 0.2 M HCl per well.
Read assay on Dynatech MR7000 ELISA reader. Test Filter: […]; Reference Filter: […]. A preferred template for the placement of controls in this experiment is provided below: […]

T1 sequence (P04626 720-987 limits assumed): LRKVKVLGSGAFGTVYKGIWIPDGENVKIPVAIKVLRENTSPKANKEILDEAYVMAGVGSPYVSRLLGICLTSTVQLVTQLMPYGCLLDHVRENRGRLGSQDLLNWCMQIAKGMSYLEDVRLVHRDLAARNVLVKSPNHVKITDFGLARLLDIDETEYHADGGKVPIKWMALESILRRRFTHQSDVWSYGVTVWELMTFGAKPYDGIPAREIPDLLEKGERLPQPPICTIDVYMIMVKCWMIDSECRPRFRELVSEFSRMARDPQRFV

| IC50 [µM] | Structure (SMILES) |
| --- | --- |
| 0.64 | CC(C)c1cc(CCC(=O)O)c(/C=C2\C(=O)Nc3ncnc(Nc4ccc(F)c(Cl)c4)c32)[nH]1 [Formula 27] |
| 0.16 | Cc1cc(C(=O)NCCN2CCOCC2)[nH]c1C=C1C(=O)Nc2ncnc(Nc3ccc(F)c(Cl)c3)c21 [Formula 4, 5-[4-(3-CHLORO-4-FLUORO-PHENYLAMINO)-6-OXO-6,7-DIHYDRO-PYRROLO[2,3-D]PYRIMIDIN-5-YLIDENEMETHYL]-4-METHYL-1H-PYRROLE-2-CARBOXYLIC ACID (2-MORPHOLIN-4-YL-ETHYL)-AMIDE HYDROCHLORIDE] |
| 0.37 | Cc1c(C(=O)N2CCOCC2)c[nH]c1/C=C1\C(=O)Nc2ncnc(Nc3ccc(F)c(Cl)c3)c21 [Formula 31] |
| 1.07 | Cc1cc(C=C2C(=O)Nc3ncnc(Nc4ccc(F)c(Cl)c4)c32)[nH]c1C(=O)N1CCOCC1 [Formula 37] |
| 0.04 | Cc1[nH]c(C=C2C(=O)Nc3ncnc(Nc4ccc(F)c(Cl)c4)c32)c(C)c1CCCN1CCOCC1 [Formula 7, 4-(3-CHLORO-4-FLUORO-PHENYLAMINO)-5-[3,5-DIMETHYL-4-(3-MORPHOLIN-4-YL-PROPYL)-1H-PYRROL-2-YLMETHYLENE]-5,7-DIHYDRO-PYRROLO[2,3-D]PYRIMIDIN-6-ONE HYDROCHLORIDE] |
| > 20 | Cc1cc(C(=O)N2CCN(C)CC2)[nH]c1/C=C1\C(=O)N(C)c2ncnc(Nc3ccc(F)c(Cl)c3)c21 [Formula 36] |
| 0.272 | Cc1cc(C(=O)NCCN2CCOCC2)[nH]c1C=C1C(=O)Nc2nccc(Nc3ccc(F)c(Cl)c3)c21 [Formula 3, 5-[4-(3-CHLORO-4-FLUORO-PHENYLAMINO)-2-OXO-1,2-DIHYDRO-PYRROLO[2,3-B]PYRIDIN-3-YLIDENEMETHYL]-4-METHYL-1H-PYRROLE-2-CARBOXYLIC ACID (2-MORPHOLIN-4-YL-ETHYL)-AMIDE] |
| 0.13 | O=C1Nc2ncnc(Nc3ccc(F)c(Cl)c3)c2C1=Cc1ccc(C(=O)NCCN2CCOCC2)[nH]1 [Formula 15, 5-[4-(3-CHLORO-4-FLUORO-PHENYLAMINO)-6-OXO-6,7-DIHYDRO-PYRROLO[2,3-D]PYRIMIDIN-5-YLIDENEMETHYL]-1H-PYRROLE-2-CARBOXYLIC ACID (2-MORPHOLIN-4-YL-ETHYL)-AMIDE] |
| 0.01 | Cc1cc(C)c(C=C2C(=O)Nc3ncnc(Nc4ccc(F)c(Cl)c4)c32)[nH]1 [Formula 9] |
| 0.1 | Cc1nc[nH]c1C=C1C(=O)Nc2ncnc(Nc3ccc(F)c(Cl)c3)c21 [Formula 8] |
| 0.1 | C#Cc1cccc(Nc2ncnc3c2C(=Cc2[nH]c(C(=O)NCCN4CCOCC4)cc2C)C(=O)N3)c1 [Formula 17, 5-[4-(3-ETHYNYL-PHENYLAMINO)-6-OXO-6,7-DIHYDRO-PYRROLO[2,3-D]PYRIMIDIN-5-YLIDENEMETHYL]-4-METHYL-1H-PYRROLE-2-CARBOXYLIC ACID (2-MORPHOLIN-4-YL-ETHYL)-AMIDE] |
| > 20 | Cc1cc(C(=O)N2CCOCC2)[nH]c1/C=C1\C(=O)N(C)c2ncnc(Nc3ccc(F)c(Cl)c3)c21 [Formula 34] |

The next lines start with the compound.

| Structure (SMILES) | IC50 [µM] |
| --- | --- |
| Cc1cc(C(=O)NCCN2CCOCC2)[nH]c1C=C1C(=O)Nc2ncnc(Nc3ccc4c(ccn4Cc4ccccc4)c3)c21.Cl [Formula 6, 5-[4-(1-BENZYL-1H-INDOL-5-YLAMINO)-6-OXO-6,7-DIHYDRO-PYRROLO[2,3-D]PYRIMIDIN-5-YLIDENEMETHYL]-4-METHYL-1H-PYRROLE-2-CARBOXYLIC ACID (2-MORPHOLIN-4-YL-ETHYL)-AMIDE HYDROCHLORIDE] | 0.13 |
| Cc1nc[nH]c1C=C1C(=O)Nc2ncnc(N3CCN(C)CC3)c21 [Formula 11] | > 100 |
| C#Cc1cccc(Nc2ncnc3c2C(=Cc2[nH]c(C)c(CCCN4CCOCC4)c2C)C(=O)N3)c1 [Formula 18] | 0.03 |
| O=C1Nc2ncnc(N3CCCCC3)c2C1=Cc1ccc(C(=O)NCCN2CCOCC2)[nH]1 [Formula 5, 5-(6-OXO-4-PIPERIDIN-1-YL-6,7-DIHYDRO-PYRROLO[2,3-D]PYRIMIDIN-5-YLIDENEMETHYL)-1H-PYRROLE-2-CARBOXYLIC ACID (2-MORPHOLIN-4-YL-ETHYL)-AMIDE] | 61.2 |
| O=C1Nc2ncnc(N3CCOCC3)c2C1=Cc1ccc(C(=O)NCCN2CCOCC2)[nH]1 [Formula 13, 5-(4-MORPHOLIN-4-YL-6-OXO-6,7-DIHYDRO-PYRROLO[2,3-D]PYRIMIDIN-5-YLIDENEMETHYL)-1H-PYRROLE-2-CARBOXYLIC ACID (2-MORPHOLIN-4-YL-ETHYL)-AMIDE] | > 100 |
| C#Cc1cccc(Nc2ncnc3c2C(=Cc2ccc(C(=O)NCCN4CCOCC4)[nH]2)C(=O)N3)c1 [Formula 16, 5-[4-(3-ETHYNYL-PHENYLAMINO)-6-OXO-6,7-DIHYDRO-PYRROLO[2,3-D]PYRIMIDIN-5-YLIDENEMETHYL]-1H-PYRROLE-2-CARBOXYLIC ACID (2-MORPHOLIN-4-YL-ETHYL)-AMIDE HYDROCHLORIDE] | 1.02 |
| Cc1nc[nH]c1C=C1C(=O)Nc2ncnc(N3CCOCC3)c21 [Formula 14] | > 100 |
| O=C1Nc2ncnc(Nc3ccc4c(ccn4Cc4ccccc4)c3)c2C1=Cc1ccc(C(=O)NCCN2CCOCC2)[nH]1 [Formula 12, 5-[4-(1-BENZYL-1H-INDOL-5-YLAMINO)-6-OXO-6,7-DIHYDRO-PYRROLO[2,3-D]PYRIMIDIN-5-YLIDENEMETHYL]-1H-PYRROLE-2-CARBOXYLIC ACID (2-MORPHOLIN-4-YL-ETHYL)-AMIDE HYDROCHLORIDE] | 0.28 |
| Cc1cc(C(=O)NCCN2CCOCC2)[nH]c1C=C1C(=O)Nc2ncnc(N3CCN(C)CC3)c21 [Formula 10, 4-METHYL-5-[4-(4-METHYL-PIPERAZIN-1-YL)-6-OXO-6,7-DIHYDRO-PYRROLO[2,3-D]PYRIMIDIN-5-YLIDENEMETHYL]-1H-PYRROLE-2-CARBOXYLIC ACID (2-MORPHOLIN-4-YL-ETHYL)-AMIDE] | > 100 |
